Reference: patent US20190357538A1, “An Antifungal Composition Comprising Natamycin and C4-C22 Fatty Acids, Monoglycerides of These Fatty Acids and/or Derivatives of These Fatty Acids” (Arec Crop Protection B.V., priority 2015, published 2019)
Where a name gives a salt, the structure may show the parent alone.

How the values were obtained:
Saccharomyces cerevisiae [1] = test: filter disc inhibition zone on PDA Petri dishes (90 mm, 50 μL), Example 4; type: cell-based; settings: 3 mM natamycin alone; after 16 h
Method: Saccharomyces cerevisiae (at least 10^5 cfu/mL) was distributed on Petri dishes with a diameter of 90 mm containing 10 ml PDA agar (Carl Roth, pH about 6) using sterilized swabs. Filter paper discs (Whatman) with a diameter of 6 mm were loaded with 50 μL of a solution containing a concentration of 3 mM natamycin plus 0.3 mM of a mixture of oleic acid sodium salt and stearic acid sodium salt in a 50/50 ratio (this mixture will be referred to as fatty acid mix). As controls, the effect of the fatty acid mix alone (without natamycin) was tested on yeast growth. Yeast growth was also determined after incubation on medium without both natamycin and fatty acid salts. The size of the inhibition zone is a result of the natamycin and/or fatty acid salts released from the sample disc. After 16 h of incubation in the stove the size of the inhibition zone was measured using a digital caliper gauge. The data are presented as square mm and are an average of four replicas.

Saccharomyces cerevisiae [2] = test: filter disc inhibition zone on PDA Petri dishes (145 mm), Example 2; type: cell-based; settings: after 16 h
Method: Saccharomyces cerevisiae (at least 10^5 cfu/ml) was distributed on Petri dishes with a diameter of 145 mm containing 30 ml Potato Dextrose Agar (PDA; Carl Roth; pH of about 6) using sterilized swabs. […] As controls, the effects of the fatty acid salts alone (without natamycin) were tested. Yeast growth was also measured after incubation on medium without natamycin and fatty acid salts. Following the application of a filter, Petri dishes were incubated upside down for 24 h in a refrigerator at 4° C. to allow diffusion of natamycin into the agar. After 24 h the filter discs were removed from the agar and the Petri dishes were incubated upside down in a stove at 30° C. […] After 16 h incubation in the stove the size of the inhibition zone was determined using a digital caliper gauge. The data are presented as square mm and are an average of four replicas.

Botrytis cinerea = test: rot on wounded apples inoculated with Botrytis cinerea; type: in vivo; settings: 3 mM natamycin; for Lesion area on apple fruits: 0 FA; for Antifungal activity (%): apple fruits
Source text: Tested fruit: apples cv Maribelle from organic origin/SKAL certified. SKAL is a semi-governmental Dutch organization that controls organic production in the Netherlands. Wounds of the apples were checked at day 5 and 7. A mixture of fatty acid sodium salts containing oleic acid sodium salt and stearic acid sodium salt in a 50/50 ratio was used in this experiment and will be referred to as fatty acid mix. Used pathogen: Botrytis cinerea spore-suspension containing 10^6 spores/ml. Application: The fruit peel of the apple was damaged with a cork borer, ø 4 mm and depth ˜0.5 cm into the fruit, with 2 wounds per apple. 40 microliter of a freshly prepared spore suspension of B. cinerea was applied by pipette onto each wound. Subsequently, the spore-suspension was allowed to air-dry for 4 hours. Then, 40 microliter of a treatment as presented in the list above was applied by pipette to each wound. All fruits were kept at room temperature (20° C.). Wounds of the apples were checked after 4 and 7 days of incubation. […] Replicates: All treatments for the apple experiment were performed on six individual apples with two wounds each resulting in 12 wounds per treatment.

[3] = solubility of natamycin in aqueous composition (description); type: physicochemical; settings: presence of fatty acids, monoglycerides and/or derivatives; pH between 5 and 9
Saccharomyces cerevisiae [4] = test: filter disc inhibition zone on Petri dishes (90 mm), Example 3; type: cell-based; settings: for surface of inhibition zone: 90 mm dish, after 16 h
Method: Saccharomyces cerevisiae (at least 10^5 cfu/ml) was distributed on Petri dishes with a diameter of 145 mm containing 30 ml Potato Dextrose Agar (PDA; Carl Roth; pH of about 6) using sterilized swabs. Filter paper discs (Whatman, Antibiotic Assay Paper, grade AA) with a diameter of 6 mm were loaded with 40 μl of a solution of 3 mM natamycin (Chinonbio, China, 95%) plus 0, 0.03, 0.09, 0.3 or 0.9 mM of sodium salts of butanoic acid (Carl Roth >99%), caprylic acid (Carl Roth, >99.5%), palmitic acid (Sigma, sodium palmitate 98.5) or stearic acid (Carl Roth, sodium stearate 88-92%). As controls, the effects of the fatty acid salts alone (without natamycin) were tested. Yeast growth was also measured after incubation on medium without natamycin and fatty acid salts.
Following the application of a filter, Petri dishes were incubated upside down for 24 h in a refrigerator at 4° C. to allow diffusion of natamycin into the agar. After 24 h the filter discs were removed from the agar and the Petri dishes were incubated upside down in a stove at 30° C. […] After 16 h incubation in the stove the size of the inhibition zone was determined using a digital caliper gauge. The data are presented as square mm and are an average of four replicas.
The experiment was performed as described in example 2, except that the diameter of the petri dishes was 90 mm. Measurement of the inhibition zone was after 16 hours.

[5] = tested on: Fusarium oxysporum f. sp. cubense; test: in vitro 96-well microtiter plate assay, visible mould development; type: cell-based; settings: substance alone
[6] = saturation level of natamycin in water by HPLC; type: physicochemical
[7] = 0.03 mM fatty acid salt without natamycin
[8] = 0.09 mM fatty acid salt without natamycin
[9] = 0.3 mM fatty acid salt without natamycin
[10] = 0.9 mM fatty acid salt without natamycin

C[C@@H]1C/C=C/C=C/C=C/C=C/[C@H](O[C@@H]2O[C@H](C)[C@@H](O)[C@H](N)[C@@H]2O)C[C@@H]2O[C@](O)(C[C@@H](O)C[C@H]3O[C@@H]3/C=C/C(=O)O1)C[C@H](O)[C@H]2C(=O)O [Natamycin, natamycin]
Inhibition zone (Saccharomyces cerevisiae [1]): 480 square mm | surface of inhibition zone (Saccharomyces cerevisiae [2]; 3 mM natamycin, 0 mM fatty acid salt, 40 μl per disc): 585 square mm | Lesion area on apple fruits (Botrytis cinerea; 5 days after inoculation): 130 mm^2 | Lesion area on apple fruits (Botrytis cinerea; 7 days after inoculation): 308 mm^2 | Antifungal activity (%) (Botrytis cinerea; incubation 5 days): 62% | Antifungal activity (%) (Botrytis cinerea; incubation 7 days): 50% | solubility of natamycin [3]: increased | surface of inhibition zone (Saccharomyces cerevisiae [4]; 3 mM natamycin, 0 mM caprylic acid salt): 788 square mm | sensitivity of Fusarium oxysporum [5]: > 7 µM | Dissolved natamycin in water ([6]; ratio natamycin:salts of oleic and stearic acid mix 1:0 (g:g), room temperature): 46 mg/L | level dissolved in water ([6]; without addition of fatty acids): about 46 ppm

CCCC(=O)O [butanoic acid-Na, butanoic acid]
surface of inhibition zone (Saccharomyces cerevisiae [2]; [7]): 0 square mm | surface of inhibition zone (Saccharomyces cerevisiae [2]; [8]): 0 square mm | surface of inhibition zone (Saccharomyces cerevisiae [2]; [9]): 0 square mm | surface of inhibition zone (Saccharomyces cerevisiae [2]; [10]): 0 square mm

CCCCCCCC(=O)O [caprylic acid ammonium salt, caprylic acid]
effect on natamycin-inhibited yeast growth (Saccharomyces cerevisiae [4]; caprylic acid salt 0.09, 0.3 and 0.9 mM with natamycin): enhanced | inhibition of growth of yeast by the salts themselves (Saccharomyces cerevisiae [4]; without natamycin): did not inhibit

CCCCCCCC(=O)O [caprylic acid potassium salt, caprylic acid]
surface of inhibition zone (Saccharomyces cerevisiae [4]; 0.03 mM caprylic acid salt without natamycin): 0 square mm | surface of inhibition zone (Saccharomyces cerevisiae [4]; 0.09 mM caprylic acid salt without natamycin): 0 square mm | surface of inhibition zone (Saccharomyces cerevisiae [4]; 0.3 mM caprylic acid salt without natamycin): 0 square mm | surface of inhibition zone (Saccharomyces cerevisiae [4]; 0.9 mM caprylic acid salt without natamycin): 0 square mm

CCCCCCCC(=O)O [caprylic acid-Na, caprylic acid]
surface of inhibition zone (Saccharomyces cerevisiae [2]; [7]): 0 square mm | surface of inhibition zone (Saccharomyces cerevisiae [2]; [8]): 0 square mm | surface of inhibition zone (Saccharomyces cerevisiae [2]; [9]): 0 square mm | surface of inhibition zone (Saccharomyces cerevisiae [2]; [10]): 0 square mm

CCCCCCCCCCCCCCCC(=O)[O-].[Na+] [palmitic acid-Na, sodium palmitate]
surface of inhibition zone (Saccharomyces cerevisiae [2]; [7]): 0 square mm | surface of inhibition zone (Saccharomyces cerevisiae [2]; [8]): 0 square mm | surface of inhibition zone (Saccharomyces cerevisiae [2]; [9]): 0 square mm | surface of inhibition zone (Saccharomyces cerevisiae [2]; [10]): 0 square mm

CCCCCCCCCCCCCCCCCC(=O)[O-].[Na+] [stearic acid-Na, sodium stearate]
surface of inhibition zone (Saccharomyces cerevisiae [2]; [7]): 0 square mm | surface of inhibition zone (Saccharomyces cerevisiae [2]; [8]): 0 square mm | surface of inhibition zone (Saccharomyces cerevisiae [2]; [9]): 0 square mm | surface of inhibition zone (Saccharomyces cerevisiae [2]; [10]): 0 square mm
